# Non-standard residues stand in square brackets, D forms with d. No end group written: not given here. pS = N[C@@H](COP(=O)(O)O)C(=O)O
# Assays:
# [1] = system: mGluR5-SIC; assay type: cell-based, mouse; details: Homer1−/−Homer2−/−Homer3−/− neurons; for effect of Pin1 peptide on BDNF potentiation of mGluR5-SIC: 0.5 μM in the pipette, n = 5
# [2] = system: NMDA receptors; assay: Whole-cell voltage clamp: mGluR5-SIC, NMDA receptor dependence; assay type: cell-based
# [3] = system: GST-Pin1; assay type: binding; details: mGluR5 expressed in HEK293 cells
# [4] = target: Pin1 (Homo sapiens, UniProt Q13526); assay: 15N ZZ-exchange NMR: Pin1-catalyzed cis/trans isomerization of mGluR5 peptide; assay type: biochemical; details: Homer1a equimolar to peptide; Pin1 sub-stoichiometric (1:10)
# Sequence of Pin1 (Q13526 whole entry, species assumed): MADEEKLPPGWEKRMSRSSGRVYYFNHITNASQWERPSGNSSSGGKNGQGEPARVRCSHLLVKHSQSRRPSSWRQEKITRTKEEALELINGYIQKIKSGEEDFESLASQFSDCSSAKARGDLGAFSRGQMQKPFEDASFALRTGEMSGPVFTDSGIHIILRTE
# [5] = target: T1, Homer1a (Rattus norvegicus, UniProt Q9Z214); assay: ITC of mGluR5 peptide into full length Homer1a; assay type: binding; details: versus unphosphorylated peptide
# T1 sequence (Q9Z214 1-186 isoform Q9Z214-3): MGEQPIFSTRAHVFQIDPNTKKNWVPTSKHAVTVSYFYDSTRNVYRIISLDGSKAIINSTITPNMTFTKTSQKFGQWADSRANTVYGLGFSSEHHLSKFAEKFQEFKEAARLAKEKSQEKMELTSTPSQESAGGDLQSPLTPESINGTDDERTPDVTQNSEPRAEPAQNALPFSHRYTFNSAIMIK
# [6] = system: mGluR5; details: bath application, 5 μM
# [7] = target: T1, Homer1a; assay: Homer1a induction in cultured striatal neurons; assay type: cell-based; details: 30 min, 50 mM KCl
# [8] = system: locomotor activity of mice; assay: Cocaine locomotion and motor sensitization; assay type: in vivo, mouse
# [9] = system: glutamate and dopamine in the nucleus accumbens; assay: In vivo microdialysis: glutamate and dopamine in nucleus accumbens; design: species or system mouse
# [10] = system: mGluR5; assay: mGluR5 phosphorylation and Homer1a expression in mouse striatum; assay type: in vivo
# [11] = system: Pin1-mGluR5; assay: Pin1 co-immunoprecipitation with mGluR5 from mouse striatum; assay type: in vivo
# [12] = system: mGluR5-SIC; assay: Whole-cell voltage clamp: SKF38393; assay type: cell-based, mouse
# [13] = system: corticostriatal synapse depotentiation; assay: Field potential recording: depotentiation of corticostriatal LTP; design: species or system mouse; details: SKF38393 3 μM
# [14] = i.p. four times, 10 or 30 mg/kg
# [15] = 10 mg/kg, WT n = 7, Grm5AA/AA n = 9
# [16] = 20 mg/kg, i.p., mice, n = 6 each group
compound,measurement,setting,value
COC(=O)[C@@]1(O)C[C@H]2O[C@]1(C)n1c3ccccc3c3c4c(c5c6ccccc6n2c5c31)C(=O)NC4 [K252a],block of BDNF potentiation of mGluR5-SIC by TrkB inhibitor,[1]; 100 nM,blocked BDNF potentiation
N[C@@H](CCCP(=O)(O)O)C(=O)O [APV],block of mGluR5-SIC by APV,[2]; 50 μM,blocked
Ac-FY[pS]PR-NH2 [Pin1 control peptide mimic],effect of Pin1 peptide on BDNF potentiation of mGluR5-SIC,[1],not by Pin1 control peptide mimic
O=C(O)[C@@H]1[C@H](C(=O)O)NCCN1C(=O)c1ccc2c(ccc3ccccc32)c1 [PPDA],block of mGluR5-SIC by PPDA,[2]; 0.2 μM,blocked
mGluR5(T1123A): mutant that prevents phosphorylation at T1123,GST-Pin1 binding to full-length mGluR5,[3],bound
mGluR5-pS: mGluR5 peptide phosphorylated at S^1126 in vitro (KELVALTPP[pS]PFRD),Pin1 catalysis of pS1126-P bond in the presence of equimolar Homer1a,[4],Pin1 was able to catalyze isomerization of pS^1126-P bond
same,increase in Homer1a affinity on S1126 phosphorylation,[5],> 10 fold
"mGluR5(T1123A, S1126A): mutant that prevents phosphorylation at both sites",GST-Pin1 binding to full-length mGluR5,[3],did not bind
"Cc1cccc(C#Cc2ccccc2)n1 [MPEP, 2-Methyl-6-(phenylethynyl)pyridine]",block of mGluR5-SIC by MPEP,[6],blocked
C[C@]12N[C@H](Cc3ccccc31)c1ccccc12 [MK-801],block of mGluR-SIC by MK-801,[2]; in the recording pipette,Blockade
[Cl-].[K+] [KCl],Homer1a induction,[7],induced Homer1a
COC(=O)[C@H]1[C@@H](OC(=O)c2ccccc2)C[C@@H]2CC[C@H]1N2C [cocaine],"acute locomotor response, Grm5AA/AA mice","[8]; acute, i.p., 10 or 30 mg/kg",increased locomotor response to acute cocaine
same,"acute locomotor response, Grm5TS/AAPin1+/− double heterozygotes","[8]; acute, i.p., 10 or 30 mg/kg",WT-levels of activity in response to acute cocaine
same,"motor sensitization, Grm5AA/AA mice",[8]; [14],markedly reduced sensitization
same,"motor sensitization, Grm5TS/AAPin1+/− double heterozygotes",[8]; [14],reduced motor sensitization
same,"motor sensitization, Homer1a−/− mice",[8]; [14],profound deficit of cocaine motor sensitization
same,"acute locomotor response, Homer1a−/− mice","[8]; initial dose, i.p. 10 or 30 mg/kg",WT-like response to the initial dose of cocaine
same,"dopamine response, Grm5AA/AA mice, 1st injection",[9]; [15],modest reduction
same,"glutamate response, Grm5AA/AA mice, 1st injection",[9]; [15],normal glutamate response
same,"glutamate and dopamine response, Grm5AA/AA mice, 4th injection","[9]; 10 mg/kg, WT n = 7, Grm5AA/AA n = 9, P < 0.05",blunted neurotransmitter responsiveness
same,"glutamate and dopamine response, Homer1a−/− mice, 1st injection","[9]; 30 mg/kg, n = 8 each group",normal glutamate and dopamine responses
same,"glutamate and dopamine response, Homer1a−/− mice, 4th injection","[9]; 30 mg/kg, n = 8 each group, P < 0.05",blunted neurotransmitter responsiveness
same,"mGluR5 phosphorylation, WT and Homer triple knockout","[10]; 10 mg/kg, i.p., 30 min, WT n = 6, Homer1−/−Homer2−/−Homer3−/− n = 7, versus saline",increased mGluR5 phosphorylation
same,Homer1a expression in striatum,[10]; [16],induces Homer1a expression
same,mGluR5 Ser-1126 phosphorylation in striatum,[10]; [16],induces transient phosphorylation
same,mGluR5 Thr-1123 phosphorylation in striatum,[10]; [16],not Thr-1123
same,double phosphorylation of mGluR5,"[10]; cocaine administration, immunoselection of pT1123",Double phosphorylation is induced
same,"Pin1 co-immunoprecipitation with mGluR5, Homer triple knockout","[11]; 10 mg/kg, i.p., 30 min, Homer1−/−Homer2−/−Homer3−/− mice",increases after cocaine administration
same,"increase of Pin1 binding, WT mice","[11]; acute cocaine, WT mice",did not detect an increase of Pin1 binding in WT mice
N#CC(=C(/N)Sc1ccccc1N)/C(C#N)=C(/N)Sc1ccccc1N [UO126],block of BDNF potentiation of mGluR5-SIC by MEK inhibitor,[1]; 20 μM,blocked BDNF potentiation
WT mGluR5: full-length mGluR5 expressed in HEK293 cells,GST-Pin1 binding to full-length mGluR5,[3],bound
Ac–Phe–Phe–pSer-Ψ[(Z)CH=C]-Pro–Arg–NH2 [Pin1 peptide mimic inhibitor],effect of Pin1 peptide on BDNF potentiation of mGluR5-SIC,[1],blocked
mGluR5(S1126A): mutant that prevents phosphorylation at S1126,GST-Pin1 binding to full-length mGluR5,[3],bound
CC(C(O)c1ccc(O)cc1)N1CCC(Cc2ccccc2)CC1 (stereo not shown) [ifenprodil],block of mGluR5-SIC by ifenprodil,[2],blocked
Oc1cc2c(cc1O)C(c1ccccc1)CNCC2 (stereo not shown) [SKF38393],"mGluR5-SIC potentiation, D1R-GFP neurons","[12]; SKF38393 1 μM after KCl pretreatment, D1-GFP, n = 8, p < 0.001",robust and consistent potentiation
same,"mGluR5-SIC potentiation, D2-GFP neurons","[12]; SKF38393 1 μM after KCl pretreatment, D2-GFP, n = 10",not D2 receptor-expressing neurons
same,"mGluR5-SIC potentiation, Homer triple knockout neurons","[12]; SKF38393 1 μM, bath, Homer1−/−Homer2−/−Homer3−/− neurons",potentiated
same,neurons with potentiation of mGluR5-SIC,"[12]; SKF38393 1 μM, Homer1−/−Homer2−/−Homer3−/− neurons, p < 0.005",6 of 13 neurons
same,"depotentiation, pretreatment, WT slices","[13]; 0.5 hrs before HFS, n = 6 and n = 8",prevented depotentiation
same,"depotentiation, pretreatment, Homer1a−/− slices","[13]; 0.5 hrs before HFS, n = 10",failed to block depotentiation
same,"depotentiation, pretreatment, Grm5AA/AA slices","[13]; 0.5 hrs before HFS, n = 12",failed to block depotentiation
same,"depotentiation, acute, WT slices","[13]; beginning 25 min after HFS, n = 4",did not block depotentiation
same,"depotentiation, acute, Grm5R/R slices","[13]; beginning 25 min after HFS, n = 6",did block depotentiation

# Reference: paper PMC3785238 (Cell, 2013)
